Source: patent US11638713B2, “Patentiflorin A analogs as antiviral agents” (priority 2019, dated 2023)

Assays:
in vitro = conditions: human
HIV = assay: microbe, parasite or virus in culture; type: cell-based; conditions: for EC50: Human immunodeficiency virus 1, A549
H5N1 virus = assay: microbe, parasite or virus in culture; type: cell-based, H5N1 influenza virus; conditions: Influenza A virus
[1] = test system: VSV (vesicular stomatitis virus); assay: microbe, parasite or virus in culture; type: cell-based; conditions: A549, read-out: EC50 against VSV
EBOV (Ebola virus) = assay: microbe, parasite or virus in culture; type: cell-based; conditions: Zaire ebolavirus, A549, read-out: EC50 against EBOV

SMILES	CC50 (in vitro; CC50 (nM))	EC50 (HIV)	also measured
COc1cc2c(OC3O[C@H](C)[C@@H](O)[C@H](OC(C)=O)[C@H]3OC(C)=O)c3c(c(-c4ccc5c(c4)OCO5)c2cc1OC)C(=O)OC3 (stereo partly drawn) [Compound 27bf, 2″,3″-Diacetyl-7-O-β-D-patentiflorin A]	308 nM	1.17 nM	
C=CCOC(=O)O[C@@H]1COC(Oc2c3c(c(-c4ccc5c(c4)OCO5)c4cc(OC)c(OC)cc24)C(=O)OC3)[C@H](OC(=O)OCC=C)[C@H]1OC(=O)N(C)C (stereo partly drawn) [Compound 30a, 2″,4″-O-diallyl oxycarbonyl-3″-O-dimethylcarbamyl-7-O-β-D-xylosyldiphyllin]	145 nM		CC50 (in vitro; CC50 against the host cell line A549): 35.2 nM; inhibition at 0.0125 µg/mL (H5N1 virus; H5N1, A549, 12.5 ng/mL, read-out: % Inhibition against H5N1 virus): 44.1%; inhibition at 0.05 µg/mL (H5N1 virus; H5N1, A549, 50 ng/mL, read-out: % Inhibition against H5N1 virus): 95.7%; inhibition at 0.25 µg/mL (H5N1 virus; H5N1, A549, 250 ng/mL, read-out: % Inhibition against H5N1 virus): 97.6%; EC50 (H5N1 virus; H5N1, A549, read-out: EC50 against H5N1 virus): 3.88 nM; EC50 [1]: 8.6 nM; EC50 (EBOV (Ebola virus)): 1.84 nM
COc1cc2c(OC3O[C@H](C)[C@@H](OC(C)=O)[C@H](O)[C@H]3OC(C)=O)c3c(c(-c4ccc5c(c4)OCO5)c2cc1OC)C(=O)OC3 (stereo partly drawn) [Compound 27be, 2″,4″-Diacetyl-7-O-β-D-patentiflorin A]	1670 nM	1.96 nM	
COc1cc2c(-c3ccc4c(c3)OCO4)c3c(c(C(C)O)c2cc1OC)COC3=O (stereo not shown) [Compound 20]	389 nM	21.7 nM	
COc1cc2c(C(C)=O)c3c(c(-c4ccc5c(c4)OCO5)c2cc1OC)C(=O)OC3 [Compound 19n]	1060 nM	39.5 nM	
COc1cc2c(OC3O[C@H](C)[C@@H](O)[C@H](OC(=O)c4cc([N+](=O)[O-])cc([N+](=O)[O-])c4)[C@H]3O)c3c(c(-c4ccc5c(c4)OCO5)c2cc1OC)C(=O)OC3 (stereo partly drawn) [Compound 31b, 3″-O-(3,5-dinitrobenzoyl)-7-O-β-D-patentiflorin A]	684 nM	13.4 nM	
COc1cc2c(OC(=O)C3CCCC3)c3c(c(-c4ccc5c(c4)OCO5)c2cc1OC)C(=O)OC3 [Compound 17f]	7070 nM	772 nM	
COc1cc2c(OCC(=O)OC(C)(C)C)c3c(c(-c4ccc5c(c4)OCO5)c2cc1OC)C(=O)OC3 [Compound 12a]	> 10100 nM	518 nM	
COc1cc2c(Nc3ccccc3)c3c(c(-c4ccc5c(c4)OCO5)c2cc1OC)C(=O)OC3 [Compound 19f]	4510 nM	976 nM	
COc1cc2cc3c(c(-c4ccc5c(c4)OCO5)c2cc1OC)C(=O)OC3 [Compound 19d]	5430 nM	22.9 nM	anti-HIV activity in terms of SI values (HIV): much more improved anti-HIV activity
COc1cc2c(OC3O[C@H](C)[C@@H](O)[C@H](OC(C)=O)[C@H]3O)c3c(c(-c4ccc5c(c4)OCO5)c2cc1OC)C(=O)OC3 (stereo partly drawn) [Compound 27bb, 3″-Acetyl-7-O-β-D-patentiflorin A]	589 nM	1.01 nM	anti-HIV activity in terms of SI values (HIV): much more improved anti-HIV activity
COc1cc2c(OC3O[C@H](C)[C@@H](OC(C)=O)[C@H](OC(C)=O)[C@H]3O)c3c(c(-c4ccc5c(c4)OCO5)c2cc1OC)C(=O)OC3 (stereo partly drawn) [Compound 27bd, 3″, 4″-Diacetyl-7-O-β-D-patentiflorin A]	421 nM	6.39 nM	
COc1cc2c(OS(=O)(=O)C(F)(F)F)c3c(c(-c4ccc5c(c4)OCO5)c2cc1OC)C(=O)OC3 [Compound 18]	1360 nM	488 nM	
COc1cc2c(-c3ccc4c(c3)OCO4)c3c(c(N4CCOCC4)c2cc1OC)COC3=O [Compound 19m]	1500 nM	88.6 nM	
COc1cc2c(C#C[Si](C)(C)C)c3c(c(-c4ccc5c(c4)OCO5)c2cc1OC)C(=O)OC3 [Compound 19o]	1220 nM	35.7 nM	
C#CCOc1c2c(c(-c3ccc4c(c3)OCO4)c3cc(OC)c(OC)cc13)C(=O)OC2 [Compound 17c]	890 nM	4.8 nM	anti-HIV activity in terms of SI values (HIV): much more improved anti-HIV activity
CCc1c2c(c(-c3ccc4c(c3)OCO4)c3cc(OC)c(OC)cc13)C(=O)OC2 [Compound 19g]	196 nM	19.3 nM	
COc1cc2c(OCC(N)=O)c3c(c(-c4ccc5c(c4)OCO5)c2cc1OC)C(=O)OC3 [Compound 14a]	548 nM	103 nM	
COc1cc2c(C3=CCN(C(=O)OC(C)(C)C)CC3)c3c(c(-c4ccc5c(c4)OCO5)c2cc1OC)C(=O)OC3 [Compound 19l]	4190 nM	75.9 nM	
COc1cc2c(-c3ccco3)c3c(c(-c4ccc5c(c4)OCO5)c2cc1OC)C(=O)OC3 [Compound 19k]	1060 nM	60.1 nM	

SMILES	CC50 (in vitro; CC50 (nM))	EC50 (HIV)	also measured
COc1cc2c(Oc3ncccn3)c3c(c(-c4ccc5c(c4)OCO5)c2cc1OC)C(=O)OC3 [Compound 17d]	61100 nM	1590 nM	
COc1cc2c(-c3cccs3)c3c(c(-c4ccc5c(c4)OCO5)c2cc1OC)C(=O)OC3 [Compound 19h]	2390 nM	270 nM	
COc1cc2c(-c3cccnc3)c3c(c(-c4ccc5c(c4)OCO5)c2cc1OC)C(=O)OC3 [Compound 19i]	38400 nM	877 nM	
COc1cc2c(-c3ccncc3)c3c(c(-c4ccc5c(c4)OCO5)c2cc1OC)C(=O)OC3 [Compound 19c]	1670 nM	88.9 nM	
COc1cc2c(OC)c3c(c(-c4ccc5c(c4)OCO5)c2cc1OC)C(=O)OC3 [Compound 17b]	2140 nM	2.6 nM	anti-HIV activity in terms of SI values (HIV): much more improved anti-HIV activity
COc1cc2c(OC3O[C@@H](C)[C@@H](O)[C@@H](O)[C@@H]3O)c3c(c(-c4ccc5c(c4)OCO5)c2cc1OC)C(=O)OC3 (stereo partly drawn) [Compound 26d, 7-O-β-L-fucopyranosyldiphyllin]	> 9500 nM	42.3 nM	anti-HIV activity in terms of SI values (HIV): much more improved anti-HIV activity
CCCC(=O)O[C@H]1[C@H](O)[C@@H](C)OC(Oc2c3c(c(-c4ccc5c(c4)OCO5)c4cc(OC)c(OC)cc24)C(=O)OC3)[C@@H]1O (stereo partly drawn) [Compound 31c, 3″-O-butyryl-7-O-β-D-patentiflorin A]	13.4 nM	0.03 nM	anti-HIV activity in terms of SI values (HIV): much more improved anti-HIV activity
COc1cc2c(OCC(=O)O)c3c(c(-c4ccc5c(c4)OCO5)c2cc1OC)C(=O)OC3 [Compound 13]	> 114000 nM	23100 nM	
C=CCOC(=O)O[C@H]1[C@H](O)[C@@H](OC(=O)OCC=C)C(Oc2c3c(c(-c4ccc5c(c4)OCO5)c4cc(OC)c(OC)cc24)C(=O)OC3)O[C@@H]1C (stereo partly drawn) [Compound 29b, 2″,4″-O-diallyl oxycarbonyl-7-O-β-D-patentiflorin A]	187 nM	4.7 nM	
COc1cc2c(N)c3c(c(-c4ccc5c(c4)OCO5)c2cc1OC)C(=O)OC3 [Compound 22]	358 nM	1.61 nM	anti-HIV activity in terms of SI values (HIV): much more improved anti-HIV activity
COc1cc2c(C)c3c(c(-c4ccc5c(c4)OCO5)c2cc1OC)C(=O)OC3 [Compound 19b]	77.3 nM	6.1 nM	
CNC(=O)COc1c2c(c(-c3ccc4c(c3)OCO4)c3cc(OC)c(OC)cc13)C(=O)OC2 [Compound 14b]	2120 nM	278 nM	
COc1cc2c(OCC(C)(C)O)c3c(c(-c4ccc5c(c4)OCO5)c2cc1OC)C(=O)OC3 [Compound 15b]	1330 nM	15.5 nM	
COc1cc2c(OCCO)c3c(c(-c4ccc5c(c4)OCO5)c2cc1OC)C(=O)OC3 [Compound 15a]	918 nM	33.6 nM	
COc1cc2c(OC(=O)c3ccc(F)cc3)c3c(c(-c4ccc5c(c4)OCO5)c2cc1OC)C(=O)OC3 [Compound 17g]	1320 nM	79.9 nM	
COc1cc2c(Nc3ccc(C(F)(F)F)cc3)c3c(c(-c4ccc5c(c4)OCO5)c2cc1OC)C(=O)OC3 [Compound 19e]	> 9550 nM	212 nM	
COc1cc2c(OC3O[C@H](C)[C@@H](O)[C@H](OC(=O)c4ccccc4)[C@H]3O)c3c(c(-c4ccc5c(c4)OCO5)c2cc1OC)C(=O)OC3 (stereo partly drawn) [Compound 31d, 3″-O-benzoyl-7-O-β-D-patentiflorin A]	> 63 nM	1.36 nM	
COc1ccc(C(=O)Oc2c3c(c(-c4ccc5c(c4)OCO5)c4cc(OC)c(OC)cc24)C(=O)OC3)cc1 [Compound 17h]	1460 nM	96.5 nM	
COc1cc2c(OC3O[C@H](C)[C@@H](OC(C)=O)[C@H](O)[C@H]3O)c3c(c(-c4ccc5c(c4)OCO5)c2cc1OC)C(=O)OC3 (stereo partly drawn) [Compound 27ba, 4″-Acetyl-7-O-β-D-patentiflorin A]	1160 nM	8.47 nM	
